Experimental data taken from patent publication EP0465913B1, “Diaminotrifluoromethylpyrimidine derivatives, process for their production and phospholipase A2 inhibitor containing them” (ISHIHARA SANGYO KAISHA, LTD., priority 1990, dated 1992).
“And” between values parts separate entries of the source, which are not always exact repeats. Identical values can stand only once. Like-named read-outs stand apart in the source and are kept apart here.

Key:
[1] = Acute toxicity, intravenous injection (LD50); format: in vivo; settings: mouse, in vivo, iv, ddy male mice, sodium salt, mortality over one week
Procedure: Administration route: Intravenous injection
Using ddy male mice (body weight: 25 - 30 g), each test group consisted of 5 mice. A test compound was dissolved in the form of a sodium salt in a physiological saline or in a 5% glucose aqueous solution, and intravenously injected in an amount of 0.1 ml/10 g body weight. After the injection, the mortality rate was obtained over one week, and the median lethal dose LD50 (mg/kg) was determined.

[2] = target: T1, Porcine pancreatic phospholipase A2 (Sus scrofa, UniProt P00592); assay: Phospholipase A2 inhibitory activity, method B (L-α-dipalmitoylphosphatidylcholine substrate); format: biochemical; settings: 1,000 ppm, 37°C for 30 minutes, read-out: % inhibition of PLA2 (1,000 ppm)
T1 construct: purchased Boehringer Mannheim·Yamanouchi K.K. 161454·122416
T1 sequence (P00592 23-146): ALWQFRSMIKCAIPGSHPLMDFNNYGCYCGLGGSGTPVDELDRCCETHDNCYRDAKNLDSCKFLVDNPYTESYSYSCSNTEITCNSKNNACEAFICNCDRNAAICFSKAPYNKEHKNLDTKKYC
In short: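 Substrate: L-α-dipalmitoylphosphatidylcholine/sodium cholate mixed micelles in 250 mM NaCl, 100 mM Tris-HCl pH 8.0. Enzyme (10 µg/ml stock) incubated with compound in buffer containing CaCl2 and BSA, 30 min at 37 °C. Released free fatty acid measured by ACS-ACOD at 540 nm; % inhibition derived from apparent enzyme concentration read off a standard curve.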

[3] = target: T1, Porcine pancreatic phospholipase A2; assay: Phospholipase A2 inhibitory activity, method A (egg yolk lecithin substrate); format: biochemical; settings: 1,000 ppm, 37°C for 30 minutes, read-out: % inhibition of PLA2 (1,000 ppm)
In short: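 Egg yolk lecithin dispersed with glycerine, Triton X-100 and CaCl2 in 50 mM Tris-HCl pH7.5 was hydrolysed by enzyme (20 ng/ml solution) with compound, 37°C, 30 min. Released free fatty acid measured by ACS-ACOD method at 540 nm; apparent enzyme level read from a standard curve to give percent inhibition.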

carrageenin edema = assay: Inhibitory activity on carrageenin edema; format: in vivo, Wistar male rats; settings: rat, paw swelling volume three hours after carrageenin; for Inhibition rate (%): dose 50 mg/kg orally
In short: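 Male Wistar rats (about 100 g, 5 per group) dosed orally at 200, 100, 50 or 25 mg/kg as 2% Tween 80 suspension or aqueous salt solution, 1 h before subplantar injection of 0.1 ml 1% λ-carrageenin. Paw swelling measured at 3 h; % inhibition versus control group mean swelling.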

[4] = test system: experimental acute pancreatitis model; assay: Effects against acute pancreatitis (Test Example 7, closed duodenal loop method, gross pathological examination); format: in vivo, Crj-CD male rats; design: key: -: No significant lesions; ±: Minimal; +: Light; ++: Moderate; +++: Marked; settings: 50 mg per kg continuous intravenous injection, examination 6 hours after ventrotomy, individual rats
Procedure: (§1) Using Crj-CD male rats (for Compound No. 19, rats having a body weight of from 371 to 484 g were used, and for Compound No. 10, rats having a body weight of from 444 to 574 g were used), each test group consisted of 3 rats. An experimental acute pancreatitis model was prepared by a closed duodenal loop method under anesthesia with halothane (manufactured by Hoechst Japan) and nitrous oxide (manufactured by Sumitomo Seika K.K.) applied by means of a general inhalation anesthesia machine (Model EM-2 and halothane evaporator F-Model). Then, Compound No. 19 or Compound No. 10 was continuously intravenously injected into the tail vein in an amount of 50 mg per kg or 40 mg per kg, respectively, at a rate of 0.05 ml per minute by means of a pump (Technicon AA II Proportioning Pump III, manufactured by Technicon Instruments Corporation). No injection was made to a control group. Gross pathological examination was conducted upon expiration of 6 hours after the ventrotomy in the case of the test group to which Compound No. 19 was administered, or upon expiration of 3 hours after the ventrotomy in the case of the test group to which Compound No. 10 was administered. As a result, as shown in the following Table 12, the groups to which the compounds of the present invention were administered, show distinct usefulness for treating acute pancreatitis.

[5] = test system: experimental acute pancreatitis model; assay: as above; format: in vivo, Crj-CD male rats; design: key to Pancreatic edema Distribution: -: No significant lesions; ± ∼ +++: Focal-diffuse; ± ∼ +++: Focal-diffuse; ± ∼ +++: Focal-diffuse; ± ∼ +++: Focal-diffuse; key to Pancreatic hemorrhage Petechia Grade / Pancreatic edema Grade: -: No significant lesions; ±: Minimal; +: Light; ++: Moderate; +++: Marked; settings: 50 mg per kg continuous intravenous injection, examination 6 hours after ventrotomy, individual rats
Procedure: as §1

[6] = test system: experimental acute pancreatitis model; assay: Effects against acute pancreatitis (Test Example 8, closed duodenal loop method, lesion scores); format: in vivo, Crj-CD male rats; settings: sodium salt, 6 hours after ventrotomy; for inhibition in vivo at 10 mg/kg: Rattus norvegicus, 10 mg/kg single intravenous injection
In short: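 Closed duodenal loop pancreatitis in male Crj-CD rats (n=3) under halothane/nitrous oxide; sodium-salt compounds given i.v. into tail vein by continuous infusion or bolus, controls untreated. At 6 h, four pancreatic lesions scored 0-3; inhibition % of total and hemorrhagic scores calculated versus control.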

[7] = test system: increased vascular permeability induced by acetic acid; assay: Inhibitory activity on increased vascular permeability induced by acetic acid (Rat Whittle method, method D); format: in vivo, SD (Crj: CD) male rats; settings: amount of leaked dye
Procedure: Using SD (Crj: CD) male rats, each test group consisted of from 3 to 5 rats. A test compound was mixed with Tween 80 [polyoxyethylenesorbitan monooleate (manufactured by Nacalai Tesque K.K.)], and distilled water was added thereto to obtain a 2% Tween 80 suspension, or it was dissolved in the form of a salt in water to obtain an aqueous solution. A test compound was orally administered, and one hour later, 0.7% acetic acid was intraperitonially injected to each rat in an amount of 0.05 ml/10 g, and at the same time, 2% brilliant blue was intravenously injected into the tail vein in an amount of 0.05 ml/20 g. Thirty minutes after the injection of brilliant blue, the cervical vertebrae were dislocated under anesthesia by chloroform, and the abdorminal cavity was washed with 10 ml of a physiological saline. The washing solution was subjected to centrifugal separation at 3,000 rpm for 10 minutes, and the amount of the dye in the supernatant was measured at 600 nm absorbance by Microplate ELISA Reader (Model 2550EIA Reader, manufactured by Bio-Rad Laboratories). The inhibition rate of the amount of leaked dye in the group to which a test compound was administered relative to the control group was obtained from the following formula, and the results are shown in Table 9. Inhibition rate (%) = (l -(C)/(D)) x 100 [formula] • C: Amount of leaked dye in the group to which a test compound was administered. • D: Amount of leaked dye in the control group.

[8] = test system: increased vascular permeability induced by acetic acid; assay: Inhibitory activity on increased vascular permeability induced by acetic acid (Mouse Whittle method, method C); format: in vivo, ddy male mice; settings: dose 20 mg/kg orally, amount of leaked dye
Procedure: Using ddy male mice, each test group consisted of 4 or 5 mice. A test compound was mixed with Tween 80 [polyoxyethylenesorbitan monooleate (manufactured by Nacalai Tesque K.K.)], and distilled water was added thereto to obtain a 2% Tween 80 suspension, or it was dissolved in the form of a salt in water to obtain an aqueous solution. A test compound was orally administered, and upon expiration of one hour from the administration, 0.7% acetic acid was intraperitonially injected to each mouse in an amount of 0.1 ml/10 g, and at the same time, 2% brilliant blue was intravenously injected into the tail vein in an amount of 0.1 ml/20 g. Thirty minutes after the injection of brilliant blue, the cervical vertebrae were dislocated under anesthesia by chloroform, and the abdorminal cavity was washed with 5 ml of a physiological saline. The washing solution was subjected to centrifugal separation at 3,000 rpm for 10 minutes, and the amount of the dye in the supernatant was measured at 600 nm absorbance by Microplate ELISA Reader (Model 2550EIA Reader, manufactured by Bio-Rad Laboratories). The inhibition rate of the amount of leaked dye in the group in which a test compound was administered relative to the control group was obtained by the following formula. Inhibition rate (%) = (l -(C)/(D)) x 100 [formula] • C: Amount of leaked dye in the group to which a test compound was administered. • D: Amount of leaked dye in the control group.

[9] = read-out: Inhibition rate of hemorrhagic lesions (%)
[10] = read-out: Inhibition rate of pancreatitis lesions (%)

Compound	LD50 at 168 h [1] [mg/kg]	inhibition at 1000 ppm [2] [%]	inhibition in vivo at 10 mg/kg [6, 9] [%]	inhibition in vivo at 10 mg/kg [6, 10] [%]	Inhibition rate (%) ([7]; dose 25 mg/kg orally)	Inhibition rate (%) (carrageenin edema)	Inhibition rate (%) ([7]; dose 50 mg/kg orally)	further results
CCS(=O)(=O)Nc1ncc(C(F)(F)F)cc1NC(=O)C(F)(F)C(F)(F)F [Compound No. 19, N-(2-ethylsulfonylamino-5-trifluoromethyl-3-pyridyl)pentafluoropropionamide]	50 to 100	75						inhibition at 1000 ppm [3]: > 90%; inhibition in vivo at 100 mg/kg (carrageenin edema; po, 3 h, dose 100 mg/kg orally, read-out: Inhibition rate (%)): 31%; Pancreatic hemorrhage Petechia Distribution [4]: -; Pancreatic edema Distribution [5]: + (2×) and ††; Pancreatic edema Grade [5]: + (2×) and ††; Pancreatic hemorrhage Petechia Grade [5]: -
CS(=O)(=O)Nc1ncc(C(F)(F)F)cc1NC(=O)C=Cc1cccs1 [compound 72]		73	62	32	66			inhibition in vivo at 25 mg/kg (carrageenin edema; po, 3 h, dose 25 mg/kg orally, read-out: Inhibition rate (%)): 21%
CS(=O)(=O)Nc1ncc(C(F)(F)F)cc1NC(=O)c1cccc(C(F)(F)F)c1 [compound 80]	> 80	73	11	8	33	29		
CS(=O)(=O)Nc1ncc(C(F)(F)F)cc1NC(=O)c1ccncc1 [compound 82]		38			38	19		
CCS(=O)(=O)Nc1ncc(C(F)(F)F)cc1NC(=O)c1cccc(F)c1 [compound 98]		65				45	32	
CCS(=O)(=O)Nc1ncc(C(F)(F)F)cc1NC(=O)c1ccco1 [compound 101]						24	41	Inhibition rate (%) [8]: 46%
CN(C)S(=O)(=O)Nc1ncc(C(F)(F)F)cc1NC(=O)c1cccc(F)c1 [compound 113]		35	41	36		26	67	
CS(=O)(=O)Nc1ncc(C(F)(F)F)cc1NC(=O)c1cccs1 [compound 120]	83					27	35	Inhibition rate of hemorrhagic lesions (%) ([6]; 24 mg/kg continuous intravenous injection): 100%; Inhibition rate (%) [8]: 43%
